Results from patent US7553966B2, “Glucocorticoid mimetics, methods of making them, pharmaceutical compositions, and uses thereof” (Boehringer Ingelheim Pharmaceuticals, Inc., priority 2002, dated 2009).

How the values were obtained:
[1] = tested on: glucocorticoid receptor; assay: Glucocorticoid Receptor Cell Assays (agonist activity in one or more of the above assays); assay type: cell-based; settings: qualitative statement; assay not specified
Protocol: B. Glucocorticoid Receptor Cell Assays
1. Induction of Aromatase in Fibroblasts (Cell Assay for Transactivation)
Dexamethasone, a synthetic ligand to the glucocorticoid receptor (GR), induces expression of aromatase in human foreskin fibroblast cells. The activity of aromatase is measured by the conversion of testosterone to estradiol in culture media.
On the day of the experiment, the media in the wells is replaced with fresh media. Cells are treated with test compounds to final concentrations of 10^−5 M to 10^−8 M, and testosterone to a final concentration of 300 ng/mL. Each well has a total volume of 100 μL. Samples are made in duplicates. Control wells include: (a) wells that receive testosterone only, and (b) wells that receive testosterone plus 2 μM of dexamethasone to provide maximum induction of aromatase. Plates are incubated at 37° C. overnight (15 to 18 hours), and supernatants are harvested at the end of incubation. […] The amount of estradiol is inversely proportional to the ELISA signals in each well. The extent of aromatase induction by test compounds is expressed as a relative percentage to dexamethasone. EC50 values of test compounds are derived by non-linear curve fitting.
2. Inhibition of IL-6 Production in Fibroblasts (Cell Assay for Transrepression)
Human foreskin fibroblast cells produce IL-6 in response to stimulation by pro-inflammatory cytokine IL-1.
On the next day, media in the wells is replaced with fresh media. Cells are treated with IL-1 (rhIL-1α, R&D Systems Cat. No. 200-LA) to a final concentration of 1 ng/mL, and with test compounds to final concentrations of 10^−5 M to 10^−8 M, in a total volume of 200 μL per well. Samples are done in duplicates. […] Positive control wells receive IL-1 only and represent maximum (or 100%) amount of IL-6 production. Plates are incubated at 37° C. overnight (15 to 18 hours), and supernatants are harvested at the end of incubation. IL-6 levels in the supernatants are determined by the ELISA kits for IL-6 (MedSystems Diagnostics GmbH, Vienna, Austria, Cat. No. BMS213TEN) according to manufacture's instructions. The extent of inhibition of IL-6 by test compounds is expressed in percentage relative to positive controls. IC50 values of test compounds are derived by non-linear curve fitting.
Evaluation of agonist or antagonist activity of compounds binding to the glucocorticoid receptor may be determined by any of the assays.
3. Modulation of Tyrosine Aminotransferase (TAT) Induction in Rat Hepatoma Cells
Testing of compounds for agonist or antagonist activity in induction of tyrosine aminotransferase (TAT) in rat hepatoma cells.
H4-II-E-C3 cells were incubated overnight in 96 well plates (20,000 cells/100 μL/well) in MEM medium containing 10% heat inactivated FBS and 1% nonessential amino acids. On the next day, cells were stimulated with the indicated concentrations of dexamethasone or test compound (dissolved in DMSO, final DMSO concentration 0.2%) for 18 hours. Control cells were treated with 0.2% DMSO. After 18 hours, the cells were lysed in a buffer containing 0.1% Triton X-100 and the TAT activity was measured in a photometric assay using tyrosine and alpha-ketoglutarate as substrates.
For measuring antagonist activity, the hepatoma cells were pre-stimulated by addition of dexamethasone (concentration ranges from 3×10^−9 M to 3×10^−8 M) shortly before the test compound was applied to the cells.
4. Modulation of MMTV-Luc Induction in HeLa Cells
Testing of compounds for agonist or antagonist activity in stimulation of MMTV-(mouse mammary tumor virus) promoter in HeLa cells.
Cells were cultured overnight in DMEM medium without phenol red, supplemented with 3% CCS (charcoal treated calf serum) and then transferred to 96 well plates (15,000 cells/100 μL/well).

[2] = molecular target: T1, human glucocorticoid receptor (GR) complex (Homo sapiens, UniProt P04150); assay: Glucocorticoid Receptor Competitive Binding Assay (fluorescence polarization, TAMRA-labeled dexamethasone probe); settings: qualitative statement; competition with TAMRA-labeled dexamethasone
T1 construct: made in house; host or cells: insect expression system (baculovirus lysate)
T1 sequence (P04150 1-777): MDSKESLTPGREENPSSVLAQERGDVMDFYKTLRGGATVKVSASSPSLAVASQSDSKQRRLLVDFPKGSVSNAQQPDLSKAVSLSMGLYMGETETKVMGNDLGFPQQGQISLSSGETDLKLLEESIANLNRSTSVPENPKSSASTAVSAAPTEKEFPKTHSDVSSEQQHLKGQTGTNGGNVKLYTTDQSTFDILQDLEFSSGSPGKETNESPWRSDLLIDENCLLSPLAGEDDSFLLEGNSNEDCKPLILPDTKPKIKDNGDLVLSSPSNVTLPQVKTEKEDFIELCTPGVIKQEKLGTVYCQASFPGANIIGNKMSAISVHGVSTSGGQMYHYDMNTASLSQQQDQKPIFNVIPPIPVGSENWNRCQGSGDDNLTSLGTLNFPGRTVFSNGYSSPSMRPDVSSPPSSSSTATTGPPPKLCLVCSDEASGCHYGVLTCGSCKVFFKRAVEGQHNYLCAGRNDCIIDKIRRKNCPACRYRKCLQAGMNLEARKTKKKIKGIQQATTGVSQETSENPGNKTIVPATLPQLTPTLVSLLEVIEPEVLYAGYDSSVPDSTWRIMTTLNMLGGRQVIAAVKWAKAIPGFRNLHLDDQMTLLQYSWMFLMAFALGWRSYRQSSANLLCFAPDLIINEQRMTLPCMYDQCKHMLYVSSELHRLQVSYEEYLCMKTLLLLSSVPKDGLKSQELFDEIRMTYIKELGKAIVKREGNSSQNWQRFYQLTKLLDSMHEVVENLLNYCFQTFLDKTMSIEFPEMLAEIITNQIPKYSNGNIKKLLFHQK
Method in brief: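 Competition with TAMRA-dexamethasone for a human GR complex expressed in insect cells, read by fluorescence polarization. Buffer was 10 mM TES, 50 mM KCl, 20 mM Na2MoO4, 1.5 mM EDTA, 0.04% CHAPS, 10% glycerol, 1 mM DTT, pH 7.4.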

| activity in the GR binding assay [2] | Compound | activity as agonists of the glucocorticoid receptor function in one or more of the above assays [1] |
| --- | --- | --- |
| potent activity | CC(C)(CC(O)(Cc1cc2cc(C#N)ccc2[nH]1)C(F)(F)F)c1ccccc1 (stereo not shown) [2-(2-Hydroxy-4-methyl-4-phenyl-2-trifluoromethylpentyl)-1H-indole-5-carbonitrile] | potent agonists |
| potent activity | CC(C)(CC(O)(Cc1ccnc2ccccc12)C(F)(F)F)c1ccccc1O (stereo not shown) [2-(4,4,4-Trifluoro-3-hydroxy-1,1-dimethyl-3-quinolin-4-ylmethylbutyl)phenol] | potent agonists |
| potent activity | COc1cccc(C(C)(C)CC(O)(Cc2cc3c(C)cc(C#N)cc3[nH]2)C(F)(F)F)c1 (stereo not shown) [2-[2-Hydroxy-4-(3-methoxyphenyl)-4-methyl-2-trifluoromethylpentyl]-4-methyl-1H-indole-6-carbonitrile] | potent agonists |
| potent activity | Cc1cc(C)c2[nH]c(CC(O)(CC(C)(C)c3cc(F)ccc3O)C(F)(F)F)nc2c1 (stereo not shown) [2-[3-(5,7-Dimethyl-1H-benzoimidazol-2-ylmethyl)-4,4,4-trifluoro-3-hydroxy-1,1-dimethylbutyl]-4-fluorophenol] | potent agonists |
| potent activity | Cc1cc(C#N)cc2[nH]c(CC(O)(CC(C)(C)c3cccc4c3OCC4)C(F)(F)F)cc12 (stereo not shown) [2-[4-(2,3-Dihydrobenzofuran-7-yl)-2-hydroxy-4-methyl-2-trifluoromethylpentyl]-4-methyl-1H-indole-6-carbonitrile] | potent agonists |
| potent activity | Cc1cc(C#N)cc2[nH]c(CC(O)(CC(C)(C)c3cccc(F)c3)C(F)(F)F)cc12 (stereo not shown) [2-[4-(3-Fluorophenyl)-2-hydroxy-4-methyl-2-trifluoromethylpentyl]-4-methyl-1H-indole-6-carbonitrile] | potent agonists |
| potent activity | COc1cc(F)ccc1C(C)(C)CC(O)(Cc1[nH]c2ccccc2c1C#N)C(F)(F)F (stereo not shown) [2-[4-(4-Fluoro-2-methoxyphenyl)-2-hydroxy-4-methyl-2-trifluoromethyl-pentyl]-1H-indole-3-carbonitrile] | potent agonists |
| potent activity | COc1cc(F)ccc1C(C)(C)CC(O)(Cc1cc2cc(C#N)ccc2[nH]1)C(F)(F)F (stereo not shown) [2-[4-(4-Fluoro-2-methoxyphenyl)-2-hydroxy-4-methyl-2-trifluoromethylpentyl]-1H-indole-5-carbonitrile] | potent agonists |
| potent activity | CC(C)(CC(O)(Cc1cc2cc(C#N)ccc2[nH]1)C(F)(F)F)c1ccc(F)cc1 (stereo not shown) [2-[4-(4-Fluorophenyl)-2-hydroxy-4-methyl-2-trifluoromethylpentyl]-1H-indole-5-carbonitrile] | potent agonists |
| potent activity | Cc1cc(C#N)cc2[nH]c(CC(O)(CC(C)(C)c3ccc(F)cc3)C(F)(F)F)cc12 (stereo not shown) [2-[4-(4-Fluorophenyl)-2-hydroxy-4-methyl-2-trifluoromethylpentyl]-4-methyl-1H-indole-6-carbonitrile] | potent agonists |
| potent activity | CC(C)(CC(O)(Cc1[nH]c2ccccc2c1C#N)C(F)(F)F)c1cc(Br)cc2c1OCC2 (stereo not shown) [2-[4-(5-Bromo-2,3-dihydrobenzofuran-7-yl)-2-hydroxy-4-methyl-2-trifluoromethylpentyl]-1H-indole-3-carbonitrile] | potent agonists |
| potent activity | CC(C)(CC(O)(Cc1[nH]c2ccccc2c1C#N)C(F)(F)F)c1cc(F)cc2c1OCC2 (stereo not shown) [2-[4-(5-Fluoro-2,3-dihydrobenzofuran-7-yl)-2-hydroxy-4-methyl-2-trifluoromethylpentyl]-1H-indole-3-carbonitrile] | potent agonists |
| potent activity | Cc1cc(C#N)cc2[nH]c(CC(O)(CC(C)(C)c3cc(F)ccc3O)C(F)(F)F)cc12 (stereo not shown) [2-[4-(5-Fluoro-2-hydroxyphenyl)-2-hydroxy-4-methyl-2-trifluoromethylpentyl]-4-methyl-1H-indole-6-carbonitrile] | potent agonists |
| potent activity | COc1ccc(F)cc1C(C)(C)CC(O)(Cc1[nH]c2ccccc2c1C#N)C(F)(F)F (stereo not shown) [2-[4-(5-Fluoro-2-methoxyphenyl)-2-hydroxy-4-methyl-2-trifluoromethylpentyl]-1H-indole-3-carbonitrile] | potent agonists |
| potent activity | COc1ccc(F)cc1C(C)(C)CC(O)(Cc1cc2cc(C#N)ccc2[nH]1)C(F)(F)F (stereo not shown) [2-[4-(5-Fluoro-2-methoxyphenyl)-2-hydroxy-4-methyl-2-trifluoromethylpentyl]-1H-indole-5-carbonitrile] | potent agonists |
| potent activity | COc1ccc(F)cc1C(C)(C)CC(O)(Cc1cc2c(C)cc(C#N)cc2[nH]1)C(F)(F)F (stereo not shown) [2-[4-(5-Fluoro-2-methoxyphenyl)-2-hydroxy-4-methyl-2-trifluoromethylpentyl]-4-methyl-1H-indole-6-carbonitrile] | potent agonists |

| Compound | activity in the GR binding assay [2] | activity as agonists of the glucocorticoid receptor function in one or more of the above assays [1] |
| --- | --- | --- |
| COc1ccc(F)cc1C(C)(C)CC(O)(Cc1cc2ccncc2[nH]1)C1CC1 (stereo not shown) [2-Cyclopropyl-4-(5-fluoro-2-methoxyphenyl)-4-methyl-1-(1H-pyrrolo[2,3-c]pyridin-2-yl)pentan-2-ol] | potent activity | agonists |
